Measurements from ChEMBL document CHEMBL1201862, “PubChem BioAssay data set” (2004).
“And” between values parts separate entries of the source, which are not always exact repeats. Equal entries are not always repeated. The source made the active and inactive calls.

Legend:
Protein RecA = target: T1, Protein RecA (Mycobacterium tuberculosis, UniProt P9WHJ3); assay: Fluorescence Cell-Free Homogeneous Dose Retest to Identify Inhibitors of RecA-Intein Splicing Activity. [Related pubchem assays (depositor defined):AID2097, AID2223, AID489010, AID492950]; assay type: functional
T1 sequence (P9WHJ3 whole entry): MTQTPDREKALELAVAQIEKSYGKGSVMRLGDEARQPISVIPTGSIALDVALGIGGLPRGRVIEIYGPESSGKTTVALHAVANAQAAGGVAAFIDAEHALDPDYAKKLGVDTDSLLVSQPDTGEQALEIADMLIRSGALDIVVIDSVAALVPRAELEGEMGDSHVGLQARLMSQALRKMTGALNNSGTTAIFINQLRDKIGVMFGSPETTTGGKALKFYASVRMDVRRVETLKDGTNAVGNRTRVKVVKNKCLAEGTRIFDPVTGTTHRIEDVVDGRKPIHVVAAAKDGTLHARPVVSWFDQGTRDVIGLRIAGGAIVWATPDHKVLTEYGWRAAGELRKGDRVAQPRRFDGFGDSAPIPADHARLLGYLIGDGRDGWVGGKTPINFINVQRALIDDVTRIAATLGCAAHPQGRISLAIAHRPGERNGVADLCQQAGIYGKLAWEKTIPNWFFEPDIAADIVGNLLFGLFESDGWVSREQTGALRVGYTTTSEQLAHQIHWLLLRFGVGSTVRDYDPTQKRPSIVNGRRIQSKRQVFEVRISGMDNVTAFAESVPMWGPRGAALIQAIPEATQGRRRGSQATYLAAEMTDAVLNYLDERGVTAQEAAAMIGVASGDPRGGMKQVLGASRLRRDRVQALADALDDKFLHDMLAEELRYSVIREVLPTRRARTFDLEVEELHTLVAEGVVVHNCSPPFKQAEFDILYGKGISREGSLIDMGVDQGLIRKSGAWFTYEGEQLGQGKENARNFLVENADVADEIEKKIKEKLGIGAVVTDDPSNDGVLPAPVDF

[1] = target: T2, Replicative DNA helicase DnaB (Mycobacterium tuberculosis, UniProt P9WMR3); assay: DnaB intein splicing inhibitors, dose response, biochemical, cell-free fluorescence (AID 449749); assay type: functional
T2 sequence (P9WMR3 whole entry): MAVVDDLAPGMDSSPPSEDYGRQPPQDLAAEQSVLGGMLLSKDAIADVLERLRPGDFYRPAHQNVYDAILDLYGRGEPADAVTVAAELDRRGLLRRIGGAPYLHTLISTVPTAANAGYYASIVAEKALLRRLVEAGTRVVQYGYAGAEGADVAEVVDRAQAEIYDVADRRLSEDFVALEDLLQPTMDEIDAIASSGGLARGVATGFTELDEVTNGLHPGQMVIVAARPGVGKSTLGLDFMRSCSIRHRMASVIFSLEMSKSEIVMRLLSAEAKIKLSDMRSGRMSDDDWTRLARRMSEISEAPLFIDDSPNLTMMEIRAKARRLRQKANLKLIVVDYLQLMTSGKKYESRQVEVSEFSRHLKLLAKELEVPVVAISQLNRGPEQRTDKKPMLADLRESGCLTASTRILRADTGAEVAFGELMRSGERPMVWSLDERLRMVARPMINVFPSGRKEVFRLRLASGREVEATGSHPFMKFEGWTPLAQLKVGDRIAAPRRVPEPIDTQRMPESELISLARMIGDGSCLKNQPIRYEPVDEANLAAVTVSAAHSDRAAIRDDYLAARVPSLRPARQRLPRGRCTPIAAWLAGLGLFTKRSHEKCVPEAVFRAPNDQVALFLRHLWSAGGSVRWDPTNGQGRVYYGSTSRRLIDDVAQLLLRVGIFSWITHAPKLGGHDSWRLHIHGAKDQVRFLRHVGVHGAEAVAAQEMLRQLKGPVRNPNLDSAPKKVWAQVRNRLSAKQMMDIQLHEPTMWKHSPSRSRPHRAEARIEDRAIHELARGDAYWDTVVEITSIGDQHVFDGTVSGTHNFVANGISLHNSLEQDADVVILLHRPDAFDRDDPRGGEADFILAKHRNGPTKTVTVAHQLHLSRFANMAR

Bcl-2-related protein A1 [2] = target: T3, Bcl-2-related protein A1 (Mus musculus, UniProt Q07440); assay: Bfl-1 inhibitors, primary screen, biochemical, fluorescence polarization, FITC-Bid, mouse (AID 432)
T3 sequence (Q07440 whole entry): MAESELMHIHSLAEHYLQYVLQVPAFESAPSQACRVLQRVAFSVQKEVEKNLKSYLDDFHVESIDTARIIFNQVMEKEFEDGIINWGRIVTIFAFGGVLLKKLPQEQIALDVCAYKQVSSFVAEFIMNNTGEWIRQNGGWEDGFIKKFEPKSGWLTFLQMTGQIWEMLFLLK

[3] = target: Glyceraldehyde-3-phosphate dehydrogenase (Homo sapiens, UniProt P04406)
Chain of Glyceraldehyde-3-phosphate dehydrogenase (P04406 whole entry): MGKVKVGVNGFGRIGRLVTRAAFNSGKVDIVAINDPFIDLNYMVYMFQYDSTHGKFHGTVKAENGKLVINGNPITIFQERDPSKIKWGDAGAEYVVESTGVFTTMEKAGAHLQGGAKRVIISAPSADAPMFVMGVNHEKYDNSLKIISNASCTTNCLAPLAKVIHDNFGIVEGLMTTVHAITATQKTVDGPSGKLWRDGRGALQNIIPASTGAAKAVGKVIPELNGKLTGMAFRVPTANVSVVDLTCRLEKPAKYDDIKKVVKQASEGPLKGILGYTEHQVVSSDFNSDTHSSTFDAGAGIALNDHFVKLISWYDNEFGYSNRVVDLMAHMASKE

Bcl-2-related protein A1 [4] = target: T3, Bcl-2-related protein A1; assay: Bfl-1 inhibitors blocking BH3 peptide binding, confirmation, biochemical, TR-FRET, mouse Bfl-1 (AID 621);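 also: TR-FRET binding of GST-Bfl-1 to FITC-labelled Bid peptide via terbium antibody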
Genome polyprotein = Genome polyprotein (dengue virus type 2, UniProt P29990); assay: Dengue-2 NS5 methyltransferase inhibitors, primary screen, biochemical, confirmation dose response (AID 588689); assay type: functional
Chain of Genome polyprotein (P29990 2492-3391 limits assumed): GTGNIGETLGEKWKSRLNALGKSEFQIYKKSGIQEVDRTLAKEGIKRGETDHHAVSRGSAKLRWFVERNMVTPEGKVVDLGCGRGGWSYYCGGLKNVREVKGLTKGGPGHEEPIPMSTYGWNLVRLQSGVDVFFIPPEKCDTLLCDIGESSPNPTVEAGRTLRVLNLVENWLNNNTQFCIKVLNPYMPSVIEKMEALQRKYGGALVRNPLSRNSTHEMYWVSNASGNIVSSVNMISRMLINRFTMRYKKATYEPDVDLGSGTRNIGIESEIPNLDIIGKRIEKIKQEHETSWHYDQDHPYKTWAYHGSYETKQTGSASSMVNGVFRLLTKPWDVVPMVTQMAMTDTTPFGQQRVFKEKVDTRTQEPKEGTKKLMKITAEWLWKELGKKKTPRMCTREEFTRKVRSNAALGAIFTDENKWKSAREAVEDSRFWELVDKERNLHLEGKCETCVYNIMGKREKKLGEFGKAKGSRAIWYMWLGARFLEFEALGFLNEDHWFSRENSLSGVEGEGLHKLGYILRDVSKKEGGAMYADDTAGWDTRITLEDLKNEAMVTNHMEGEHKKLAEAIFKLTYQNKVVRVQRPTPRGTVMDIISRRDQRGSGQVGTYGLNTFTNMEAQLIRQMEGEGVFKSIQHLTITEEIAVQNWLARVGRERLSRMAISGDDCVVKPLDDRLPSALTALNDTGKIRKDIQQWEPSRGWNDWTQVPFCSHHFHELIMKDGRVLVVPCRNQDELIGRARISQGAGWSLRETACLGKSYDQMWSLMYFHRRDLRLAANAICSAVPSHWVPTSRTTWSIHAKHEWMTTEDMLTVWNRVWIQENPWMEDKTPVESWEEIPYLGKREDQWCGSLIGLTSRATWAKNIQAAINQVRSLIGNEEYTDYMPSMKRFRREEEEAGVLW

Bcl-2-related protein A1 [5] = target: T3, Bcl-2-related protein A1; assay: Bfl-1 binding inhibitors, SAR follow-up, biochemical, fluorescence polarization (AID 1070)
[6] = target: Diphosphomevalonate decarboxylase (Streptococcus pneumoniae serotype 2 (strain D39 / NCTC 7466), UniProt Q9FD53); assay: S. pneumoniae DPM-DC inhibition retest, confirmation, biochemical, cuvette format, coupled NADH fluorescence (AID 1028); assay type: functional
Chain of Diphosphomevalonate decarboxylase (Q9FD53 whole entry): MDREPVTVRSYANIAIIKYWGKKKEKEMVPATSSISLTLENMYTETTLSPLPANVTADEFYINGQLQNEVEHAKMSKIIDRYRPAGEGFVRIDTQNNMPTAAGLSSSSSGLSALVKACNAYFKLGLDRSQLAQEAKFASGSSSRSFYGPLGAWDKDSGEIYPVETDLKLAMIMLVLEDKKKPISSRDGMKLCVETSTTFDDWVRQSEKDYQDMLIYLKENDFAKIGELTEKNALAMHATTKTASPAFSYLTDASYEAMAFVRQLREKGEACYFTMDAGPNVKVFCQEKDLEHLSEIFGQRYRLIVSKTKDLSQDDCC

NADPH oxidase 1 = NADPH oxidase 1 (Homo sapiens, UniProt Q9Y5S8); assay: Late-stage luminescence-based cell-based dose response assay to identify inhibitors of NADPH oxidase 1 (NOX1): Synthesized analogs.; assay type: functional
Chain of NADPH oxidase 1 (Q9Y5S8 whole entry): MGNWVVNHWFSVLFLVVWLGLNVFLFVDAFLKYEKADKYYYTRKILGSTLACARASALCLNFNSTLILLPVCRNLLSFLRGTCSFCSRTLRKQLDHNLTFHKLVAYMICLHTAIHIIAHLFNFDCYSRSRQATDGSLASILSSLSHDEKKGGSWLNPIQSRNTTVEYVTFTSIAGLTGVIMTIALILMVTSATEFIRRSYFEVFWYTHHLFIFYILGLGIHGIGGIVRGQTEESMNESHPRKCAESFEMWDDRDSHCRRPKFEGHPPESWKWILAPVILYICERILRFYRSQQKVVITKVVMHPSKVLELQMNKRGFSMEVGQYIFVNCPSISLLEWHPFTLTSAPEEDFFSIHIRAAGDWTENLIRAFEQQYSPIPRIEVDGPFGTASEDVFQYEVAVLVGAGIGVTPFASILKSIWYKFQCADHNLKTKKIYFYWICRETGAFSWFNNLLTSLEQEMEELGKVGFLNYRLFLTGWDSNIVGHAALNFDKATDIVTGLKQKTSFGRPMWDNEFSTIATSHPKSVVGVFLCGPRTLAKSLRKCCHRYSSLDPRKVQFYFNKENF

[7] = target: Sphingosine 1-phosphate receptor 2 (Homo sapiens, UniProt O95136); assay: Dose Response Cell Based Assay for Antagonists of the S1P2 Receptor. [Related pubchem assays: 856, 736 ]; assay type: functional
Chain of Sphingosine 1-phosphate receptor 2 (O95136 whole entry): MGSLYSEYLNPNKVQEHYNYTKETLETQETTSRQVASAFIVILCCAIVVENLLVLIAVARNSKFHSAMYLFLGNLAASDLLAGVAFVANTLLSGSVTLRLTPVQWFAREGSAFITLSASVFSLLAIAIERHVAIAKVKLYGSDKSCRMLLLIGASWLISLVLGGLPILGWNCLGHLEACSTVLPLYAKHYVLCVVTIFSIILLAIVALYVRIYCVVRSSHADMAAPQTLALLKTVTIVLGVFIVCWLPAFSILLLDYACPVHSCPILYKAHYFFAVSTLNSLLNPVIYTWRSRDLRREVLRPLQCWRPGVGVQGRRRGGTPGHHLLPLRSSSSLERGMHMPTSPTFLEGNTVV

Vero = assay: cytotoxicity of synthesized analogs in Vero cells, SAR follow-up, cytotoxicity control for West Nile virus antiviral project, cell-based, set II (AID 2402); assay type: functional; conditions: Chlorocebus sabaeus

Question: How did the EC50 (Protein RecA) turn out when CN1CCN(C2=C(Cl)C(=O)N(c3ccc(Cl)c(Cl)c3)C2=O)CC1 was run?
Answer: Its EC50 is 2.22 µM (active).

Question: And the AC50 [1]?
Answer: The AC50 was 3.75 µM (active).

Question: What about the IC50 (Bcl-2-related protein A1 [2]) of the same compound?
Answer: The IC50 was 0.65 µM (active).

Question: And the IC50 [3]?
Answer: Its IC50 is > 100 µM (not active).

Question: And the IC50 (Bcl-2-related protein A1 [4])?
Answer: The IC50 was 580 nM (active) and 500 nM (active).

Question: What about the IC50 (Genome polyprotein) of the same compound?
Answer: The IC50 was 16.9 µM (active).

Question: What about the IC50 (Bcl-2-related protein A1 [5]) of the same compound?
Answer: The IC50 was 0.362 µM (active).

Question: Which IC50 [6] does the source give for O=C(c1cccc(-n2sc3ccccc3c2=O)c1)N1CCOCC1 here?
Answer: Its IC50 is 23.1 µM (active).

Question: For O=C(/C=C/c1ccccc1)N1c2ccccc2Sc2ccc(C(F)(F)F)cc21, which IC50 (NADPH oxidase 1) is on record?
Answer: The IC50 was > 50 µM (not active).

Question: CN(C)/C=N/C(=O)c1sc2cc(C(F)(F)F)cnc2c1-c1ccccc1 was tested. Which IC50 [7] did it give?
Answer: Its IC50 is > 30 µM (not active).

Question: How did the CC50 (Vero) turn out when O=C(CSc1nc2ccc(F)cc2c(=O)n1-c1ccccc1)Nc1ccc2c(c1)CCC2 was run?
Answer: The CC50 was > 200 µM (active).
